Assay results: paper PMC9878617, “Distinct conformational changes occur within the intrinsically unstructured pro‐domain of pro‐Nerve Growth Factor in the presence of ATP and Mg^2+” (Protein Science : A Publication of the Protein Society, 2023)

Biological target: T1, rh-proNGF (Homo sapiens, UniProt P01138)
T1 construct: gene NGF; proNGF without signal peptide; homodimer
Assay: ITC, global fit of two titrations (SEDPHAT)
Assay type: binding
Settings: read-out: Best-fit value
Source text: ITC, global fit of two titrations (SEDPHAT) on rh-proNGF

T1 sequence (P01138 19-241): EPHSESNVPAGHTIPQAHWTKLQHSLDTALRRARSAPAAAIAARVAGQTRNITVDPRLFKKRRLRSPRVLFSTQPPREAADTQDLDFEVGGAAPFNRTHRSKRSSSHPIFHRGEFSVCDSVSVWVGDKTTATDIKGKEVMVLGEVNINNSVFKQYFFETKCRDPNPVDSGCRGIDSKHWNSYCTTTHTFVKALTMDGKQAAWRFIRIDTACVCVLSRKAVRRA

Kd: 39.7 µM
Compound: Nc1ncnc2c1ncn2[C@@H]1O[C@H](COP(=O)(O)OP(=O)(O)OP(=O)(O)O)[C@@H](O)[C@H]1O [ATP]
